US12686697B2, “Advantageous morphic form of AT-527 hemi-sulfate salt” (Atea Pharmaceuticals, Inc., priority 2021, dated 2026)
Entries after “also recorded” stand apart in the source; their conditions may differ. Counter-ions that a name gives are not always drawn.

How the values were obtained:
[1] = Stability of 0.1 kg lot of Form III under ambient conditions (15° C.-25° C., ambient RH); format: physicochemical; settings: 12 months / one year
Experimental: Example 8. Stability of 0.1 kg Lot of Form III
Additional stability studies were performed for smaller lots of Compound A Form III. These studies were performed in stability chambers set to 25° C. and 60% RH, 40° C. and 75% RH for up to 8 weeks. In other embodiments the studies can be performed for up to 4 weeks, for up to 2 weeks and for one week. The stability studies were also performed under ambient conditions, 15-25° C. with no control over the humidity.

[2] = Stability of 5 kg lot of Form III at 40° C.±2° C., 75% RH±5% RH; format: physicochemical; settings: 40° C. and 75% RH, three months
Experimental: Example 7. Stability of 5 kg Lot of Form III at 40° C.±2° C., 75% RH±5% RH
Further studies on the stability of Compound A Form III were conducted at elevated temperature and humidity. These conditions are less desirable for the storage of active pharmaceutical ingredients and may lead to accelerated degradation.

[3] = Stability of 5 kg lot of Form III at 25° C.±2° C., 60% RH±5% RH; format: physicochemical; settings: stored at about 25° C. and about 60% RH, three months
Experimental: Example 6. Stability of 5 kg Lot of Form III at 25° C.±2° C., 60% RH±5% RH
These properties are advantageous for use in clinical trials or clinical use of the compound.

SARS-CoV-2 = settings: cited from earlier work
HCV = settings: non-cirrhotic and cirrhotic HCV-infected patients, single and multiple doses; cited from earlier work
[4] = in vivo; cited from earlier work
[5] = clinical trials; cited from earlier work

## CNc1nc(N)nc2c1ncn2[C@@H]1O[C@H](CO[P@@](=O)(N[C@@H](C)C(=O)OC(C)C)Oc2ccccc2)[C@@H](O)[C@@]1(C)F [Compound A Form III, hemi-sulfate salt of isopropyl ((S)-(((2R,3R,4R,5R)-5-(2-amino-6-(methylamino)-9H-purin-9-yl)-4-fluoro-3-hydroxy-4-methyltetrahydrofuran-2-yl)methoxy)(phenoxy)phosphoryl)-L-alaninate]
[1]
  Decrease in purity: little or no decrease; also recorded: no measurable decrease in purity
[2]
  Degradation (decrease in purity, generation of impurities): no measurable decrease in purity or generation of impurities; also recorded: no measurable degradation
[3]
  Absorption of water from the atmosphere upon storage: does not appreciably absorb water
  Degradation measured by HPLC-UV: no measurable degradation

## CNc1nc(N)nc2c1ncn2[C@@H]1O[C@H](CO[P@@](=O)(N[C@@H](C)C(=O)OC(C)C)Oc2ccccc2)[C@@H](O)[C@@]1(C)F [Compound A, hemi-sulfate salt of isopropyl ((S)-(((2R,3R,4R,5R)-5-(2-amino-6-(methylamino)-9H-purin-9-yl)-4-fluoro-3-hydroxy-4-methyltetrahydrofuran-2-yl)methoxy)(phenoxy)phosphoryl)-L-alaninate]
SARS-CoV-2
  Potency against SARS-CoV-2: potent
HCV
  Antiviral reduction in HCV-infected cohorts: significant antiviral reduction
[4]
  Tissue concentration: disproportionately concentrate in the lung and the liver
[5]
  Drug related serious adverse events: no drug related serious adverse events observed
